These are literature values, as cited in patent publication US20100047195A1, “LIP BALM AND METHOD OF TREATING LIP CONDITIONS” (priority 2007, published 2010).

The conditions of the series: oral isotretinoin; estimated.

Regarding `CC1=C(/C=C/C(C)=C/C=C/C(C)=C\C(=O)O)C(C)(C)CCC1` [isotretinoin, 13-cis-retinoic acid], the “patients treated who develop cheilitis (cracking, soreness and other inflammation of the lips)” value is recorded as “over 90%”.
